Assay results taken from ChEMBL document CHEMBL1667742, “Angiotensin II receptor type 1 (AT1) selective nonpeptidic antagonists--a perspective” (Bioorg Med Chem, 2010).
Numbering of substitutions follows the chain as printed. Values belong to the compound of their own block, whether it stands above or below them.

Legend:
[1] = target: T1, Type-1 angiotensin II receptor (Homo sapiens, UniProt P30556); test: Antagonist activity at angiotensin AT1 receptor in human PLC-PRF5 cells; format: functional, cell-based
T1 sequence (P30556 whole entry): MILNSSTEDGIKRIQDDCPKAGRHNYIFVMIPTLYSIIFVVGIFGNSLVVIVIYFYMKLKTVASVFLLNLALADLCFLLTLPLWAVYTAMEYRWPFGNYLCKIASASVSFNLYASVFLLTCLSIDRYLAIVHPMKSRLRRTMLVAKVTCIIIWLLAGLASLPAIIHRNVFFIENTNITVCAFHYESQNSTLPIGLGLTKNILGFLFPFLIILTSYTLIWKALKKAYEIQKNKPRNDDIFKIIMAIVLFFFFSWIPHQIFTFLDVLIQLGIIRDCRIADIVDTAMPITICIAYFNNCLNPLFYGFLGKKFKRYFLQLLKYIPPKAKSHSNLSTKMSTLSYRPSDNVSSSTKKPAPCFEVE

[2] = target: T1, Type-1 angiotensin II receptor; test: Displacement of [3H]-angiotensin 2 from angiotensin AT1 receptor in human PLC-PRF5 cells; format: cell-based
[3] = target: T2, Type-1 angiotensin II receptor (Oryctolagus cuniculus, UniProt P34976); test: Antagonist activity at angiotensin AT1 receptor in rabbit thoracic aortic rings; format: functional; details: read-out: pA2 (converted)
T2 sequence (P34976 whole entry): T1 sequence (P30556 whole entry) with I2M, V49A, I254V, I270V, R272H, R311K, T349S, A353V

[4] = target: T2, Type-1 angiotensin II receptor; test: Displacement of [125I]-Sar1Ile8-angiotensin 2 from angiotensin AT1 receptor in rabbit aortic membranes; format: cell membranes
[5] = Antagonist activity at angiotensin AT1 receptor in rat uterine membranes; format: functional, cell membranes
[6] = target: T2, Type-1 angiotensin II receptor; test: Antagonist activity at angiotensin AT1 receptor in rabbit aorta assessed as reduction of angiotensin 2-induced contractile response; format: functional, tissue-based; details: read-out: pA2 (converted)
[7] = system: Rattus norvegicus; test: Antihypertensive activity in iv dosed conscious rat; format: functional
[8] = system: Rattus norvegicus; test: Antihypertensive activity in po dosed conscious rat; format: functional; details: read-out: ED50
[9] = target: T3, Type-1 angiotensin II receptor (Oryctolagus cuniculus) (UniProt P34976); test: Antagonist activity at angiotensin AT1 receptor in rabbit aorta; format: functional, tissue-based
T3 sequence (whole entry): T1 sequence (P30556 whole entry) with I2M, V49A, I254V, I270V, R272H, R311K, T349S, A353V

[10] = Displacement of [3H]-angiotensin 2 from angiotensin AT1 receptor in rat liver membranes; format: cell membranes, Membrane
[11] = Oral bioavailability in rat; format: ADME, organism-based; details: in vivo
[12] = Binding affinity to angiotensin AT1 receptor in rat liver membranes; format: cell membranes, Membrane
[13] = Oral bioavailability in dog; format: ADME, organism-based, Canis lupus familiaris; details: in vivo
[14] = Oral bioavailability in cynomolgus monkey; format: ADME, organism-based, Macaca fascicularis; details: in vivo
[15] = system: Rattus norvegicus; test: Antihypertensive activity in iv dosed salt depleted SHR rat model assessed as reduction of angiotensin 2-induced response; format: functional
[16] = Displacement of [125I]-Sar1Ile8-angiotensin 2 from angiotensin AT1 receptor in rat adrenal cortical membranes; format: cell membranes, Membrane
[17] = system: Rattus norvegicus; test: Antihypertensive activity in iv dosed salt depleted SHR rat model assessed as reduction of angiotensin 2-induced mean arterial pressure at […]; format: functional, Artery; parameters: scale not given: the % may be the effect or the level left
[18] = Displacement of [125I]-Sar1Ile8-angiotensin 2 from angiotensin AT1 receptor in rat aortic smooth muscle cells
[19] = system: Rattus norvegicus; test: Inhibition of angiotensin 2-induced response in iv dosed conscious Sprague-Dawley rat; format: functional
[20] = system: Rattus norvegicus; test: Antihypertensive activity in conscious normotensive rat assessed as inhibition of angiotensin 2-induced pressor response at 1 mg/kg, iv after 6 hrs; format: functional
[21] = system: Rattus norvegicus; test: Antihypertensive activity in iv dosed anesthetized ganglionic blocked rat model assessed as reduction of angiotensin 2-induced response; format: functional, organism-based
[22] = Displacement of [125I]-angiotensin 2 from angiotensin AT1 receptor in rat liver membranes; format: cell membranes, Membrane
[23] = system: Rattus norvegicus; test: Antihypertensive activity in iv dosed renal hypertensive rat model assessed as reduction of blood pressure; format: functional
[24] = system: Rattus norvegicus; test: Antihypertensive activity in po dosed renal hypertensive rat model assessed as reduction of blood pressure; format: functional
[25] = target: T4, Type-1 angiotensin II receptor (Bos taurus, UniProt P25104); test: Displacement of radiolabeled angiotensin 2 from angiotensin AT1 receptor in bovine adrenal cortex membranes; format: cell membranes, Membrane
T4 sequence (P25104 whole entry): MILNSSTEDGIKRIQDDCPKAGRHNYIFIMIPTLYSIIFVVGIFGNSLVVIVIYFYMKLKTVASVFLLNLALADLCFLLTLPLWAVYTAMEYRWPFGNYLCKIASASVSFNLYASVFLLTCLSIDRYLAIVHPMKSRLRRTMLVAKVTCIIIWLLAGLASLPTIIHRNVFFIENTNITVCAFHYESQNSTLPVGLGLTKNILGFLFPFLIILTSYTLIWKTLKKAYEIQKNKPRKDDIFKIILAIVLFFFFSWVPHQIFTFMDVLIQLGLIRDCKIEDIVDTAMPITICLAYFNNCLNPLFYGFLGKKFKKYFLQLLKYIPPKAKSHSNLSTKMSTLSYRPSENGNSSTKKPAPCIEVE

[26] = target: T5, Type-1 angiotensin II receptor (Cavia porcellus) (UniProt Q9WV26); test: Antagonist activity at angiotensin AT1 receptor in guinea pig aorta assessed as reduction of angiotensin 2-induced contractile response; format: functional, tissue-based
T5 sequence (whole entry): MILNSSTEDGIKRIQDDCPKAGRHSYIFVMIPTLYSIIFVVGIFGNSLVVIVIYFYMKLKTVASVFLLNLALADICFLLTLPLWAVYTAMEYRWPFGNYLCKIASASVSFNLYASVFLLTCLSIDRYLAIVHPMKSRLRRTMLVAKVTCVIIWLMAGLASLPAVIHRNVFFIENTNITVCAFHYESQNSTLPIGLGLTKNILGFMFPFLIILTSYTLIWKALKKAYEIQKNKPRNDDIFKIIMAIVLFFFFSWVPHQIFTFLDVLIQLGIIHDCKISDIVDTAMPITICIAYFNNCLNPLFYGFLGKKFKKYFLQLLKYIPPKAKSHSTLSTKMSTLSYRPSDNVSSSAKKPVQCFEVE

[27] = species: Rattus norvegicus; test: Displacement of radiolabeled angiotensin2 from angiotensin AT1 receptor in rat adrenal cortex membranes; format: cell membranes; details: Membrane, concentration not given here
[28] = system: Homo sapiens; test: Metabolic stability in iv and po dosed human assessed as conversion of EXP3174; format: ADME, organism-based; details: in vivo
[29] = system: Rattus norvegicus; test: Inhibition of angiotensin 2-induced response in iv dosed pithed normotensive rat; format: functional
[30] = system: Rattus norvegicus; test: Inhibition of angiotensin 2-induced response in intraduodenally dosed pithed normotensive rat; format: functional; details: Rattus norvegicus, intraduodenal

Structure (SMILES): CCCCN1CC2(CN1Cc1ccc(-c3ccccc3-c3nnn[nH]3)cc1)C(=O)CCC2=O
- IC50 [1]: 22 nM
- Ki [2]: 25 nM

Structure (SMILES): CCCCc1nc2cc(OC)cc(C(=O)O)c2n1Cc1ccc(N(CC)C(C(=O)O)c2ccccc2)cc1 (stereo unspecified)
- Kb [3]: 5.01 nM

Structure (SMILES): CCCCc1nn(CC(C)(C)C)c(=O)n1Cc1ccc(-c2ccccc2-c2nnn[nH]2)cc1
- IC50 [4]: 1.2 nM

Structure (SMILES): CCCCc1nn(CCCC)c(=O)n1Cc1ccc(-c2ccccc2-c2nn[nH]n2)cc1
- IC50 [5]: 5.1 nM
- Kb [6]: 1.38 nM

Structure (SMILES): CCCCc1nc2ccc(NC(=O)N(C)C(C)C)cc2c(=O)n1Cc1ccc(-c2ccccc2-c2nn[nH]n2)cc1
- ED50 [7]: 0.25 mg/kg
- ED50 [8]: 0.68 mg/kg

Structure (SMILES): CCCN(Cc1ccc(-c2ccccc2-c2nn[nH]n2)cc1)c1ncccc1C(=O)O
- bioavailability [11]: > 50%
- Ki [12]: 0.76 nM
- bioavailability [13]: > 50%
- bioavailability [14]: > 50%

Structure (SMILES): CCc1nc2c(C)cc(C)nn2c1Cc1ccc(-c2ccccc2-c2nn[nH]n2)cc1
- inhibition in vivo at 1 mg/kg [20]: 90%

Structure (SMILES): CCCc1nc(CN2CCN(c3ccccn3)CC2)c(C(=O)O)n1Cc1ccc(-c2ccccc2-c2nn[nH]n2)cc1
- ED50 [23]: 0.18 mg/kg
- ED50 [24]: 1.65 mg/kg

Further lines, with some results ahead:

- pKb [9]: 9
- pKi [10]: 9.3
Structure (SMILES): CCc1nc(C2CC2)c(C(N)=O)n1Cc1ccc2oc(-c3ccccc3NS(=O)(=O)C(F)(F)F)c(Br)c2c1

- Ki [16]: 18.4 nM
Structure (SMILES): CCCCc1nc(Cl)c(C(=O)[O-])n1Cc1cccc2c1ccn2-c1ccccc1-c1nn[n-]n1.[Li+].[Li+]
- ED50 [15]: 0.03 µmol/kg
- Activity [17]: 39%
- Ki [18]: 7.6 nM
- ED50 [19]: 0.22 µmol/kg

- IC50 [21]: 6.2 mg/kg
- IC50 [22]: 0.8 nM
Structure (SMILES): CCCc1nc(-n2cccc2C(=O)C(F)(F)F)c(C(=O)O)n1Cc1ccc(-c2ccccc2-c2nn[nH]n2)cc1

- IC50 [25]: 7.7 nM
- pD2 [26]: 9.9
Structure (SMILES): CCCc1nc(C(C)(C)O)c(C(=O)O)n1Cc1ccc(-c2ccccc2-c2nnn[nH]2)cc1 [OLMESARTAN]

- inhibition [27]: 60%
Structure (SMILES): CCCc1nc(C)n(CCO)c(=O)c1Cc1ccc(-c2ccccc2-c2nnn[nH]2)cc1

- Stability [28]: 14%
Structure (SMILES): CCCCc1nc(Cl)c(CO)n1Cc1ccc(-c2ccccc2-c2nn[nH]n2)cc1 [LOSARTAN]

- IC50 [12]: 1000 nM
Structure (SMILES): CCc1nc2c(C)cc(C)nc2n1Cc1ccc(-c2ccccc2S(=O)(=O)NC(=O)NCC2CC2)cc1
- ED50 [29]: 0.014 µmol/kg
- ED50 [30]: 0.012 mg/kg
